Laboratory results as given in EP3929184A1, “((((3-HALOPHENYL)(PHENYL)METHYL)SULFINYL)METHYL)THIOPHENE COMPOUNDS AND DIASTEREOMERIC FORMS THEREOF FOR USE IN IMPROVING COGNITIVE FUNCTIONS” (Red Bull GmbH, priority 2020, dated 2021).

Legend:
presynaptic cells = experiment: Dopamine release from presynaptic cells; assay type: cell-based; settings: different from compounds such as Amphetamines
young rats = experiment: Reversal of scopolamine effect in young rats; assay type: in vivo

## [O-][S+](Cc1cccs1)C(c1ccccc1)c1cccc(Br)c1 [2-2, 2-(((((R),(R)-3-bromophenyl)(phenyl)methyl)sulfinyl)methyl)thiophene]
Presynaptic cells
  release of dopamin from presynaptic cells: does not induce release
Young rats
  effect of compounds such as scopolamine: reversed
